From publication PMC6814738, “Bacterial MgrB peptide activates chemoreceptor Fpr3 in mouse accessory olfactory system and drives avoidance behaviour” (Nature Communications, 2019) come the findings set out here.

Peptide text beside a SMILES is read from it. * marks the point of attachment. For = O=C*

In assay [1] the target is T1, mouse Fpr3 (Fpr-rs1) (Mus musculus, UniProt O08790).
T1 construct: expressed in transfected cells; host or cells: HEK293T (DSMZ # ACC-635), transient transfection with jetPEI
T1 sequence (O08790 1-351): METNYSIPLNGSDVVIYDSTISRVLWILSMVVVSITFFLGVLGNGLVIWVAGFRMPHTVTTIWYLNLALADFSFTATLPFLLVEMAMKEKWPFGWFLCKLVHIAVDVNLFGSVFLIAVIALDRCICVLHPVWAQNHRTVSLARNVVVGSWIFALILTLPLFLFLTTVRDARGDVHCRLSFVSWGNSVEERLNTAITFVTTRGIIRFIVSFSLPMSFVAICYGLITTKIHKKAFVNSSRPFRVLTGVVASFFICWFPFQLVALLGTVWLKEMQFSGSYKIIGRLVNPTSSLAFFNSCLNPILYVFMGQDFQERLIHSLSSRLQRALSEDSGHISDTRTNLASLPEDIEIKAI
Briefly: Concentration-response Ca2+ imaging of Fpr3-transfected HEK293T cells (Fig. 2f, h, j). Type of assay: cell-based. The conditions noted are these: for EC50: Ca2+ responses of Fpr3-transfected HEK293T, Fluo-4/AM, FLIPR, buffer C1 pH 7.2, Fig. 2f, h, j. As for the experimental part: (§1) An Fpr3 gene subcloned from genomic DNA of C57BL/6J mice into pcDNA3.1 (Invitrogen) was used in heterologous experiments[21],[80]. HEK293T (DSMZ # ACC-635) cells were seeded at 20–30% confluence on poly-D-lysine-coated (10 µg/ml in PBS) black 96-well µCLEAR-Plates (Greiner Bio-One). Cells were transfected 24 h later using jetPEI™ (Polyplus-transfection SA) according to the manufacturer’s protocol for 96-well transfections. For Ca^2+ imaging experiments, 0.125 µg of DNA plasmid encoding Fpr3 were cotransfected with equal amounts of a plasmid encoding Gα16, a promiscuous G protein α-subunit. Ca^2+ signals to agonist stimulation were recorded 48 h post transfection using the Ca^2+ indicator dye Fluo-4/AM (Molecular Probes) and a fluorescence imaging plate reader (FLIPR) system (Molecular Devices).
We used custom-made peptides with a length of 6–21 amino acids to screen for agonists. Sequences of fMet peptides were designed according to motifs present at the N-termini of 15,125 specific bacterial proteins as annotated in UniProt. Peptides were chemically synthesised, purified, and verified by mass spectroscopy (MALDI-TOF) by commercial suppliers. […] Source, sequence and purity of each peptide are listed in Supplementary Data 1. Lyophilised peptides were routinely dissolved in the Ca^2+ imaging assay buffer C1 (130 mM NaCl, 10 mM HEPES, 5 mM KCl, 2 mM CaCl2, 5 mM glucose, pH 7.2) as 0.2–1 mM stock solutions and kept in small aliquots at −20 °C until use.

In assay [2] the target is T1, mouse Fpr3 (Fpr-rs1). Briefly: Heterologous expression / high-throughput Ca2+ imaging agonist screen and sequence selectivity of Fpr3 (Fig. 1a, 2c-e, 2g, 2i). Type of assay: cell-based. The settings on record: 10 µM; Fpr3-transfected HEK293T; Fig. 2g. The procedure: as §1, with “Devices). Cotransfection of a plasmid encoding Gα16 with an empty vector used to subclone Fpr3 gave no agonist-evoked Ca^2+ responses.” for “Devices).”
We used custom-made peptides with a length of 6–21 amino acids to screen for agonists. Sequences of fMet peptides were designed according to motifs present at the N-termini of 15,125 specific bacterial proteins as annotated in UniProt. Peptides were chemically synthesised, purified, and verified by mass spectroscopy (MALDI-TOF) by commercial suppliers. Purity of all peptides was >95%. Source, sequence and purity of each peptide are listed in Supplementary Data 1. Lyophilised peptides were routinely dissolved in the Ca^2+ imaging assay buffer C1 (130 mM NaCl, 10 mM HEPES, 5 mM KCl, 2 mM CaCl2, 5 mM glucose, pH 7.2) as 0.2–1 mM stock solutions and kept in small aliquots at −20 °C until use. […] The sequences of these peptides exist in proteins from the following bacterial strains[21]: Psychromonas ingrahamii that belongs to a marine ice water microbial community, Desulfotomaculum reducens that is found in deep freshwater lakes, and Pseudomonas grimontii, a plant pathogen. As mice are unlikely to encounter these strains in their natural habitat, these findings are probably not of biological relevance.

The term EC50 denotes the midpoint of the concentration-response curve. Low readings indicate an effect from little substance, high ones a need for much substance. In the case of `CC[C@H](C)[C@H](NC(=O)[C@H](CO)NC(=O)[C@H](Cc1c[nH]c2ccccc12)NC(=O)[C@H](CCCCN)NC(=O)[C@H](Cc1ccccc1)NC(=O)[C@H](CCCCN)NC(=O)[C@H](CCCCN)NC(=O)[C@H](CCSC)NC=O)C(=O)O` (For-MKKFKWSI-OH), a half-maximal effect at mouse Fpr3 (Fpr-rs1) [1] (EC50) was put at 800 nM.
Same read-out and setting: for `CC[C@H](C)[C@H](NC(=O)CNC(=O)[C@H](CC(C)C)NC(=O)[C@@H](NC(=O)[C@@H](NC(=O)[C@H](Cc1c[nH]c2ccccc12)NC(=O)[C@H](CCCNC(=N)N)NC(=O)[C@H](Cc1ccccc1)NC(=O)[C@H](CCCCN)NC(=O)[C@H](CCCCN)NC(=O)[C@H](CCSC)NC=O)C(C)C)C(C)C)C(=O)N[C@H](C(=O)O)C(C)C` (For-MKKFRWVVLGIV-OH) the value was 210 nM.
On to “f-MKKFRWVVLGIVVVVCLLLWAQ [21-mer peptide]”, for which the “signals in concentration-response, in words” value on mouse Fpr3 (Fpr-rs1) [1] (Fpr3-transfected HEK293T, Fig. 2h) is reported as “No signals were obtained”. Further, the “Fpr3 activation by MgrB 9-, 12- and 21-residue variants, in words” value at mouse Fpr3 (Fpr-rs1) [2] was “failed to activate Fpr3”.
